Assay results as given in US20080125432A1 (Devgen NV, priority 2004, published 2008).

Molecular target: T1, hERG potassium channel (Homo sapiens, UniProt Q12809)
T1 construct: host or cells: HEK 293 T-REx
Assay: Whole cell patch clamp, HEK 293 T-REx HERG cells
Format: cell-based
Details: at 1 μM
Text: For this experiment HEK 293 T-REx HERG cells (#23) were used. This cell line made by IonGate is characterized by the inducible expression of the hERG gene. The T-REx™ System (Invitrogen, Karlsruhe, Germany) is a tetracycline-regulated mammalian expression system that uses regulatory elements from the E. coli Tn10-encoded tetracycline (Tet) resistance operon. In the absence of Tet the expression is repressed. Tetracycline regulation in the T-REx™ System is based on the binding of tetracycline to the Tet repressor and derepression of the promoter controlling expression of the hERG gene. Addition of Tet to the cell culture media results in expression of the hERG potassium channel.
To construct the HEK 293 T-REx HERG cell line, the hERG gene was ligated into the inducible expression vector pcDNA4/TO (→pc4TO-HERG) and transfected into HEK 293 T-REx cells (this cell line stably expresses the Tet repressor and was purchased at Invitrogen). Stable cell clones were isolated after selection with Blasticidin (5 μg/ml) and Zeocin™ (300 μg/ml). The clones were electrophysiological characterized after induction with 1 μg/ml Tet.
Experiments were performed using the patch clamp set-up. Technical equipment needed for manipulation of the cells was placed on a vibration-isolated table and shielded with a Faraday cage to minimize electrical noise. The amplifier and control system were placed in a rack outside the Faraday cage. The system consisted of an EPC9 or EPC10 patch clamp amplifier (HEKA, Lambrecht, Germany), and the perfusion system DADVC8 (ALA Scientific, New York, USA) controlled by the Pulse software package (HEKA, Lambrecht, Germany) installed on a personal computer.
The cells used for this experiment were kept in continuous culture under standard conditions (37° C., air supplemented with 5% CO2). The HEK 293 T-REx HERG cells were kept in minimal essential medium (MEM) supplemented with 100 U/ml Penicillin, 100 μg/ml Streptomycin, 10% fetal calf serum (FCS), 1% non-essential amino acids (NEAA), 2.5 μg/ml amphotericin, 300 μg/ml Zeocin™ and 5 μg/ml Blasticidin. Cells were passed every 3-4 days after detachment using a Trypsin solution. The quality of the cultured cells was guaranteed by vitality and contamination tests. The culture of the cells was performed as described in protocol D described above.
At least 18 hours prior to electrophysiological experiments the cells were detached by application of iced PBS (phosphate buffered saline) or Trypsin and replated on cover slips. 1 μg/ml Tet was added to the cells to induce hERG expression.
Activity of the cardiac hERG channel was investigated using the patch clamp technique in its whole cell mode. This means that the current needed for clamping the whole cell expressing the K^+-channel protein to a specific potential was measured. The pipettes used for patch clamping were made of borosilicate glass. Measurements were performed at room temperature (20-25° C.). In each experiment (i.e. each cell) only one concentration of the compound was investigated no cumulative dosages were performed. Each cell acted as its own control. […]
After the whole cell configuration was established a series of pulses was applied to check for hERG expression and to optimize amplifier settings. However, only the following measurements were used for data analysis: 15 test pulses (FIG. 4a and Table 6a) were applied at 0.1 Hz (series 1) under constant superfusion with bath solution. The protocol was initiated by a leak test at −40 mV (50 ms). […] The maximum hERG tail current amplitude was measured at −40 mV (tail current test, 1.5 sec.). Only cells generating tail current amplitudes between 300 pA and 10 nA were used for the experimental procedure.
After successful characterization of the current another 10 test pulses were applied at 0.1 Hz while the cell was superfused with bath solution (series 2). […]

T1 sequence (Q12809 whole entry): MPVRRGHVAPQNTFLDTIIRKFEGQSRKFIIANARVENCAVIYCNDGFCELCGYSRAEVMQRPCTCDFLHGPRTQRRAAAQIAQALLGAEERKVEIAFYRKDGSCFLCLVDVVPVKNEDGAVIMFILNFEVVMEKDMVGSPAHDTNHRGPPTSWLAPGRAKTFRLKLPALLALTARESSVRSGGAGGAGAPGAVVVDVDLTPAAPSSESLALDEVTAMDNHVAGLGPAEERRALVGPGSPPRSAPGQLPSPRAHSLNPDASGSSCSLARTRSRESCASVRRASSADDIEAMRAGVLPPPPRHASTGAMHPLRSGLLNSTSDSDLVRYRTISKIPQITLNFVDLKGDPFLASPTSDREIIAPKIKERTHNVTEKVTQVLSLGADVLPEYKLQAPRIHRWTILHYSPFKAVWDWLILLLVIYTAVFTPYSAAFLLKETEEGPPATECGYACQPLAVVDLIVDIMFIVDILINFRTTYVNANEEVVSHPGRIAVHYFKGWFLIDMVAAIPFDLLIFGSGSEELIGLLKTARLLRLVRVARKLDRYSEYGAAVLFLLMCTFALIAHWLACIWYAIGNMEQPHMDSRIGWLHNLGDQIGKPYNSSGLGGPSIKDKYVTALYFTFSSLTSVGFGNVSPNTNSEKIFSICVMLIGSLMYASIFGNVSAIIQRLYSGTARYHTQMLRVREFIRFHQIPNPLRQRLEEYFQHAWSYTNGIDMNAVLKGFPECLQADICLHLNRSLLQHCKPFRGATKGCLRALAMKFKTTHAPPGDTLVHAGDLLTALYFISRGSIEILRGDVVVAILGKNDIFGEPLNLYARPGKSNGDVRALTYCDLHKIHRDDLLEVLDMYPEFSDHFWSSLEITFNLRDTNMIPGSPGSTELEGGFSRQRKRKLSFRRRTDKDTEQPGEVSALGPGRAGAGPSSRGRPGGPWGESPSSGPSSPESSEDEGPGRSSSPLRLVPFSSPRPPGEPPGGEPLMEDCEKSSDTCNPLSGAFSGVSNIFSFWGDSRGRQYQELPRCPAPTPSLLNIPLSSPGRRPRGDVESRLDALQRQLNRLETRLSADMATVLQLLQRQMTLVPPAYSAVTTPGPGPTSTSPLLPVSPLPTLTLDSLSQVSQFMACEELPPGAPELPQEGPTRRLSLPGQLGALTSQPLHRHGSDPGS

With `Cc1nc(Nc2ccc3occc3c2)sc1C(=O)N[C@H]1CCC[C@@H]1OCc1ccccc1` [Compound 126, 2-(benzofuran-5-ylamino)-4-methyl-thiazole-5-carboxylic acid ((1S,2S)-2-benzyloxycyclopent-1-yl) amide] the hERG was 74 at1 μM.

Same assay, conditions: estimated by Hill fit with hill=1, ymax=100; tested at 10 μM, n=2; read-out: IC50 (μM) hERG

Compared with “2-(4-bromo-phenylamino)-4-methyl-thiazole-5-carboxylic acid 1,2,3,4-tetrahydroisoquinolinamide [Compound 66]”, `Cc1nc(Nc2ccc(F)cc2)sc1C(=O)N[C@H](C)c1ccc2ccccc2c1` [Compound 16, 2-(4-fluoro-phenylamino)-4-methyl-thiazole-5-carboxylic acid (R)-1-(naphthalen-2-yl)ethyl amide] is 2.8-fold higher in IC50: 9.88 µM for the first, 28 µM for the second. The first is the more potent here.

Compared with `Cc1nc(Nc2ccc(Br)cc2)sc1C(=O)N[C@@H](C)c1ccc2ccccc2c1` [Compound 18, 2-(4-bromo-phenylamino)-4-methyl-thiazole-5-carboxylic acid (S)-1-(naphthalen-2-yl)ethyl amide], `Cc1nc(Nc2ccc(Br)cc2)sc1C(=O)N[C@H](C)c1ccc2ccccc2c1` [Compound 19, 2-(4-bromo-phenylamino)-4-methyl-thiazole-5-carboxylic acid (R)-1-(naphthalen-2-yl)ethyl amide] is 3.4-fold higher in IC50: 26.5 µM for the first, 90 µM for the second.

First: Cc1nc(Nc2ccc(Cl)cc2)sc1C(=O)N[C@@H]1CCC[C@H]1OCc1ccccc1 [Compound 30, 2-(4-chloro-phenylamino)-4-methyl-thiazole-5-carboxylic acid (1R,2R)-2-(benzyloxycyclopent-1-yl) amide]
Second: COc1ccccc1Nc1nc(C)c(C(=O)N[C@@H]2CCC[C@H]2OCc2ccccc2)s1 [Compound 31, 2-(2-methoxy-phenylamino)-4-methyl-thiazole-5-carboxylic acid (1R,2R)-2-(benzyloxycyclopent-1-yl) amide]
The IC50 of the first is 2.3-fold lower: 11 µM for the first, 25.3 µM for the second.

First: COc1ccc(OC)c(Nc2nc(C)c(C(=O)N[C@@H]3CCC[C@H]3OCc3ccccc3)s2)c1 [Compound 33, 2-(2,5-dimethoxyphenylamino)-4-methylthiazole-5-carboxylic acid (1R,2R)-2-(benzyloxycyclopent-1-yl) amide]
Second: COc1cccc([C@@H](C)NC(=O)c2sc(Nc3cc(Cl)ccc3OC)nc2C)c1 [Compound 34]
The IC50 of the first is 3.8-fold higher: 33.5 µM for the first, 8.73 µM for the second.

Compared with `Cc1nc(Nc2ccc(Cl)cc2)sc1C(=O)N[C@H](C)c1ccc2ccccc2c1` [Compound 52, 2-(4-chloro-phenylamino)-4-methyl-thiazole-5-carboxylic acid (R)-1-(2-naphtalen-2-yl-ethyl)-amide], `Cc1nc(Nc2ccc(Cl)cc2)sc1C(=O)N[C@@H](C)c1ccc2ccccc2c1` [Compound 54, 2-(4-chloro-phenylamino)-4-methyl-thiazole-5-carboxylic acid (S)-1-(2-naphtalen-2-yl-ethyl)-amide] is 1.5-fold lower in IC50: 24.2 µM for the first, 15.8 µM for the second.

`COc1ccccc1Nc1nc(C)c(C(=O)N[C@@H](C)c2ccc3ccccc3c2)s1` [Compound 55, 2-(2-methoxy-phenylamino)-4-methyl-thiazole-5-carboxylic acid (S)-1-(2-naphtalen-2-yl-ethyl)-amide] and `Cc1nc(Nc2ccc(Br)cc2)sc1C(=O)NCc1cccc2ccccc12` [Compound 56, 2-(4-bromo-phenylamino)-4-methyl-thiazole-5-carboxylic acid (naphtalen-1-yl-methyl)-amide] are within 1.5-fold of each other in IC50: 10.2 µM for the first, 7.04 µM for the second.

Going from `COc1ccc(CNC(=O)c2sc(Nc3ccc(Br)cc3)nc2C)cc1` [Compound 60, 2-(4-bromo-phenylamino)-4-methyl-thiazole-5-carboxylic acid 4-methoxy-benzylamide] to `Cc1nc(Nc2ccc(Br)cc2)sc1C(=O)NCc1ccc(F)c(C(F)(F)F)c1` [Compound 63, 2-(4-bromo-phenylamino)-4-methyl-thiazole-5-carboxylic acid 4-fluoro-3-trifluoromethyl-benzylamide], the IC50 rises from 3 µM to 5.29 µM (1.8-fold).

Compared with `Cc1nc(Nc2ccc(Br)cc2)sc1C(=O)NCc1ccc(N(C)C)cc1` [Compound 64, 2-(4-bromo-phenylamino)-4-methyl-thiazole-5-carboxylic acid 4-dimethylamino-benzylamide], `COc1cc(CNC(=O)c2sc(Nc3ccc(Br)cc3)nc2C)cc(OC)c1` [Compound 65, 2-(4-bromo-phenylamino)-4-methyl-thiazole-5-carboxylic acid 3,5-dimethoxy-benzylamide] is lower in IC50: > 100 µM for the first, 1.63 µM for the second.

In the case of `COc1ccccc1Nc1nc(C)c(C(=O)N[C@H]2CCC[C@@H]2OCc2ccccc2)s1` [Compound 68, 2-(2-methoxy-phenylamino)-4-methyl-thiazole-5-carboxylic acid (1S,2S)-2-(benzyloxycyclopent-1-yl) amide], the IC50 is reported as 7.95 µM.

Same assay, conditions: patch clamp; read-out: hERG IC50

“2-(4-bromo-phenylamino)-4-methyl-thiazole-5-carboxylic acid 1,2,3,4-tetrahydroisoquinolinamide [Compound 66]” and `Cc1nc(Nc2ccc(Cl)cc2)sc1C(=O)N[C@@H]1CCC[C@H]1OCc1ccccc1` [Compound 30, 2-(4-chloro-phenylamino)-4-methyl-thiazole-5-carboxylic acid (1R,2R)-2-(benzyloxycyclopent-1-yl) amide] are within 1.5-fold of each other in IC50: 9.88 µM for the first, 11 µM for the second.

First: Cc1nc(Nc2ccc(Cl)cc2)sc1C(=O)N[C@H](C)c1ccc2ccccc2c1 [Compound 52, 2-(4-chloro-phenylamino)-4-methyl-thiazole-5-carboxylic acid (R)-1-(2-naphtalen-2-yl-ethyl)-amide]
Second: Cc1nc(Nc2ccc(Cl)cc2)sc1C(=O)N[C@@H](C)c1ccc2ccccc2c1 [Compound 54, 2-(4-chloro-phenylamino)-4-methyl-thiazole-5-carboxylic acid (S)-1-(2-naphtalen-2-yl-ethyl)-amide]
The IC50 of the first is 1.5-fold higher: 24.2 µM for the first, 15.8 µM for the second.

First: Cc1nc(Nc2ccc(Br)cc2)sc1C(=O)NCc1cccc2ccccc12 [Compound 56, 2-(4-bromo-phenylamino)-4-methyl-thiazole-5-carboxylic acid (naphtalen-1-yl-methyl)-amide]
Second: Cc1nc(Nc2ccc(Br)cc2)sc1C(=O)NCc1ccc(N(C)C)cc1 [Compound 64, 2-(4-bromo-phenylamino)-4-methyl-thiazole-5-carboxylic acid 4-dimethylamino-benzylamide]
The IC50 of the first is lower: 7.04 µM for the first, > 100 µM for the second. The first is the more potent here.

Same assay, conditions: percent value, test concentration not given

In order of falling hERG:
1. Cc1nc(Sc2ccccc2)sc1C(=O)N[C@H]1CCC[C@@H]1OCc1ccccc1 [Compound 81, 4-methyl-2-phenylsulfanyl-thiazole-5-carboxylic acid ((1S,2S)-2-benzyloxycyclopent-1-yl) amide]  88%
2. COc1ccccc1Nc1ccc(C(=O)N[C@H]2CCC[C@@H]2OCc2ccccc2)s1 [Compound 75, 2-(2-methoxy-phenylamino)-thiophene-5-carboxylic acid ((1S,2S)-2-benzyloxycyclopent-1-yl) amide]  76%
3. Cc1nc(Nc2ccc3c(c2)OCCO3)sc1C(=O)N[C@H]1CCC[C@@H]1OCc1ccccc1 [Compound 95]  76%
4. Cc1nc(Nc2cccc3cccnc23)sc1C(=O)N[C@H]1CCC[C@@H]1OCc1ccccc1 [Compound 94, 4-methyl-2-(quinolin-8-ylamino)-thiazole-5-carboxylic acid ((1S,2S)-2-benzyloxycyclopent-1-yl) amide]  69%
5. COc1ccccc1Nc1nc(C)c(C(=O)NCc2ccc(N(C)C)cc2)s1 [Compound 105, 2-(2-methoxy-phenylamino)-4-methyl-thiazole-5-carboxylic acid 4-dimethylamino-benzylamide]  67%
6. Cc1nc(Nc2cccc3ccccc23)sc1C(=O)N[C@H]1CCC[C@@H]1OCc1ccccc1 [Compound 93]  59%
7. COc1ccccc1Nc1nc(C)c(C(=O)NCc2ccccc2SC)s1 [Compound 97]  55%
8. COc1ccccc1Nc1nc(C)c(C(=O)NCc2ccc3c(c2)CCO3)s1 [Compound 104, 2-(2-methoxy-phenylamino)-4-methyl-thiazole-5-carboxylic acid (2,3-dihydro-benzofuran-5-ylmethyl)-amide]  43%
9. COc1ccccc1Nc1nc(C)c(C(=O)NCc2c(C)cccc2Cl)s1 [Compound 98, 2-(2-methoxy-phenylamino)-4-methyl-thiazole-5-carboxylic acid 2-chloro-6-methyl-benzylamide]  38%
10. COc1ccccc1Nc1nccc(C(=O)N[C@H]2CCC[C@@H]2OCc2ccccc2)n1 [Compound 76, 2-(2-methoxy-phenylamino)-pyrimidine-4-carboxylic acid ((1S,2S)-2-benzyloxycyclopent-1-yl) amide]  34%
11. COc1ccccc1Nc1nc(C)c(C(=O)NCc2ccc(C(C)(C)C)cc2)s1 [Compound 106, 2-(2-methoxy-phenylamino)-4-methyl-thiazole-5-carboxylic acid 4-tert-butyl-benzylamide]  31%
12. COc1ccccc1Nc1nc(C)c(C(=O)NCc2ccc(Br)cc2)s1 [Compound 108, 2-(2-methoxy-phenylamino)-4-methyl-thiazole-5-carboxylic acid 4-bromo-benzylamide]  19%
